Columns and labels:
[1] = pharmacological screening (blood pressure, sympathomimetric and central nervous system effects; analgesic, spasmolytic, anti-inflammatory, broncholytic properties); conditions: in vivo
[2] = system: central nervous system; assay: behavior of animals treated with the compound; design: species or system mice; conditions: mouse, in vivo
[3] = effective dose compared with range of toxic doses; conditions: in vivo
[4] = system: phenylquinone-induced writhing reactions in mice; assay: writhing test on mice (phenylquinone i.p.), peroral application; assay type: in vivo; conditions: for ΣR x ± sx (frequency of writhing reactions) / % effect (Decrease in the writhing reactions): n = 10, mice
Procedure: In this test p-benzoquinone (phenylquinone) in a 0.02% aqueous solution in a volume of 10 ml/kg of body weight i.p. serves to initiate pain. The typical writhing reactions which occur after a certain latency period are recorded in their frequency; decrease in the writhing frequency is evaluated as analgesic effect. The following Table indicates the numerical connection between dosage and effect after peroral application of the active ingredient.
^o T-test for independent random samples, bilateral questioning, significant down to 0.05, below 0.001 not given. n = number of test animals. The values are mean values ± mean error of the mean value.

For `O=[N+]([O-])c1cccc(C2=NN3CCN=C3c3ccccc3S2)c1` [Example 4, Imidazolino-[1,2-d]-benzo-[f]-2-(3-nitrophenyl)-1,3,4-thiadiazepine], the “pharmacological effect, particularly analgesic properties” value [1] was “singled out for their pharmacological effect, particularly their analgesic properties”.

With `O=[N+]([O-])c1cccc(C2=NN3CCCN=C3c3ccccc3S2)c1` [Example 18, Tetrahydropyrimidino-[1,2-d]-benzo-[f]-2-(3-nitrophenyl)-1,3,4-thiadiazepine] the “behavior of treated animals” value [2] was “consistent with a central nervous system depressant action”, the “effective dose relative to toxic doses” value [3] was “much below the range of toxic doses” and the “pharmacological effect, particularly analgesic properties” value [1] was “singled out for their pharmacological effect, particularly their analgesic properties”. For the same molecule, the “ΣR x ± sx (frequency of writhing reactions)” value (“ΣR x ± sx” below) ([4]; 4.64 mg/kg peroral) was 14.7 ± 2.1, the “% effect (Decrease in the writhing reactions)” value ([4]; 4.64 mg/kg peroral, P <0.02) was 28.1 ± 10.3% and the “ΣR x ± sx” value ([4]; 10 mg/kg peroral) was 12.7 ± 2.4. For the same molecule, the “% effect (Decrease in the writhing reactions)” value ([4]; 10 mg/kg peroral, P <0.002) was 37.9 ± 11.8%, the “ΣR x ± sx” value ([4]; 21.5 mg/kg peroral) was 10.4 ± 1.9 and the “% effect (Decrease in the writhing reactions)” value ([4]; 21.5 mg/kg peroral, P <0.001) was 49.1 ± 9.4%. For the same molecule, the “ΣR x ± sx” value ([4]; 46.4 mg/kg peroral) was 8.9 ± 1.5, the “% effect (Decrease in the writhing reactions)” value ([4]; 46.4 mg/kg peroral, P <0.001) was 56.5 ± 7.2% and the “ΣR x ± sx” value ([4]; 100 mg/kg peroral) was 6.2 ± 1.7. The “% effect (Decrease in the writhing reactions)” value ([4]; 100 mg/kg peroral, P <0.001) was 69.7 ± 8.4%, the “ΣR x ± sx” value ([4]; 215 mg/kg peroral) was 0.8 ± 0.8 and the “% effect (Decrease in the writhing reactions)” value ([4]; 215 mg/kg peroral, P <0.001) was 96.1 ± 3.9%. It also gave an ED50 ([4]; Mus musculus, po, peroral application, mice, from regression line) of 21.6 mg/kg.
